Columns and labels:
hEP2 = molecular target: T1, hEP2 (Homo sapiens, UniProt P43116); test: hEP2 cAMP assay; format: cell-based; conditions: HEK293 cells overexpressing hEP2; PGE2 agonist 400 pM; graded per Table 21; read-out: IC50 (nM) EP2 cAMP
T1 construct: expressed in transfected cells; host or cells: HEK293
Procedure: (§1) HEK293 cells overexpressing hEP2 were cultured in growth medium (GM: MEM (Gibco™, 11095080)/10% HI FBS (Gibco™, 10082147)/1% penicillin/streptomycin). Before the experiment, the growth medium was removed, and starvation medium (HBSS (Gibco™, 14025076)/10% GM) was added. Thereafter, the cells were incubated for 4 hours. The HEK293 cells harboring hEP2 were detached from the culture dish with a non-enzymatic cell dissociation buffer (Gibco™, 15040066). The cells were resuspended in assay buffer (AB: HBSS, 0.1% BSA stabilizer, 0.5 mM IBMX, 5 mM HEPES).
(§2) 1,000 cells in 5 μL of AB were seeded per well in a 384 well plate (Corning™, 3570), and stock solutions of test compounds were prepared at a concentration of 1 mM in DMSO and serially diluted in DMSO to the concentration required for the inhibition dose response curve (test concentration range of 10 μM-0.001 nM). PGE2 (Sigma, P0409, stock solution: 1 μM) was used as an agonist at a final concentration of 400 pM corresponding to EC50-80. 2.5 μL of the diluted compound and 2.5 μL of PGE2 (400 pM final concentration) were transferred to the assay plate, and then the plate was incubated at room temperature for 12 minutes.
(§3) 5 μL of each donor (Eu-cAMP tracer) and acceptor (ULight-anti-cAMP) was added, and the plate was incubated in the dark for 1 hour at room temperature, and then a Varioskan LUX multimode microplate reader was used to obtain the results (excitation: 334 nm, emission: 615 and 665 nm). The resulting FRET fluorescence value (665 nm/615 nm*10000) was converted and then calculated as a percentage of cAMP relative to the DMSO control value. IC50 values and curves were generated with GraphPad Prism software using log (inhibitor) versus response-variable slopes (4 parameters), and the median of multiple experiments was taken as the experiment result.

hEP4 = molecular target: T2, hEP4 (Homo sapiens, UniProt P35408); test: hEP4 cAMP assay; format: cell-based; conditions: HEK293 cells overexpressing hEP4; PGE2 agonist 20 nM; graded per Table 21; read-out: IC50 (nM) EP4 cAMP
T2 construct: expressed in transfected cells; host or cells: HEK293
T2 sequence (P35408 whole entry): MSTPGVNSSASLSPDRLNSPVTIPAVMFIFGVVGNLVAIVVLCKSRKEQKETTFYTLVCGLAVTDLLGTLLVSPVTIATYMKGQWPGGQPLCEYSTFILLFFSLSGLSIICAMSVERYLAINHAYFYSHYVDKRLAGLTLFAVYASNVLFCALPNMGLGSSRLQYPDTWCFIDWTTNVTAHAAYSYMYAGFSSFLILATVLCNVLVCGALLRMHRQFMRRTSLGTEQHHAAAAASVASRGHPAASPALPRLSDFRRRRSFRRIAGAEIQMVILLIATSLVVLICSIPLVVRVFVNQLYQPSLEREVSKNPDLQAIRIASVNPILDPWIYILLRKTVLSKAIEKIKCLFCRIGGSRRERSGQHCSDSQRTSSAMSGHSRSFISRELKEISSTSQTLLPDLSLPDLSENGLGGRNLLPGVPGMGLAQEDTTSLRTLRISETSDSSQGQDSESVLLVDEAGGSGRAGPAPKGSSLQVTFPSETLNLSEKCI
Procedure: as §1, with “overexpressing hEP4” for “overexpressing hEP2”, “(HBSS (Gibco™” for “(HBSS (Gibco™,”, “hours.” for “hours. The”, “harboring hEP4” for “harboring hEP2”
as §2, with “plate (Corning®,” for “plate (Corning™,”, “solution: 100” for “solution: 1”, “of 20 nM” for “of 400 pM”, “PGE2 (20 nM” for “PGE2 (400 pM”, “for 18.5” for “for 12”
as §3, with “compared” for “relative”, “slope” for “slopes”

T1 sequence (P43116 whole entry): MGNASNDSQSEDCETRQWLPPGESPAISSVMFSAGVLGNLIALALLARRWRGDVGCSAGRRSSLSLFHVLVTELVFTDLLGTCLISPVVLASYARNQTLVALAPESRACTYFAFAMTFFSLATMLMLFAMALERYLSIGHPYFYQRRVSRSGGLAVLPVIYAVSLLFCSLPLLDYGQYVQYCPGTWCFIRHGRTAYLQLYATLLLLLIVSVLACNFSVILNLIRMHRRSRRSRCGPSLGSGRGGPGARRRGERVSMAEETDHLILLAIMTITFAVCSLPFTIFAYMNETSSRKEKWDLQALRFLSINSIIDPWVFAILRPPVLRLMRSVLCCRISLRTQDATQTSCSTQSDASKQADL

COc1ccc(-c2ccc(Cc3c(C)sc(C)c3C(=O)NC3CC4(C3)CC(C(=O)O)C4)cc2)cc1F (stereo not shown) [Example 40, 6-(4-((3′-fluoro-4′-methoxy-[1,1′-biphenyl]-4-yl)methyl)-2,5-dimethylthiophene-3-carboxamido)spiro[3.3]heptane-2-carboxylic acid]
IC50 (hEP2): 5000 to 10000 nM | IC50 (hEP4): < 500 nM

COc1cc(C#N)cc(-c2ccc(Cc3c(C)sc(C)c3C(=O)NC3CC4(C3)CC(C(=O)O)C4)cc2)c1 (stereo not shown) [Example 41, 6-(4-((3′-cyano-5′-methoxy-[1,1′-biphenyl]-4-yl)methyl)-2,5-dimethylthiophene-3-carboxamido)spiro[3.3]heptane-2-carboxylic acid]
IC50 (hEP2): 500 to 5000 nM | IC50 (hEP4): < 500 nM

Cc1sc(C)c(C(=O)NC2CC3(C2)CC(C(=O)O)C3)c1Cc1ccc(-c2ccc(OC(F)(F)F)cc2)cc1 (stereo not shown) [Example 42, 6-(2,5-dimethyl-4-((4′-(trifluoromethoxy)-[1,1′-biphenyl]-4-yl)methyl)thiophene-3-carboxamido)spiro[3.3]heptane-2-carboxylic acid]
IC50 (hEP2): > 10000 nM | IC50 (hEP4): 500 to 5000 nM

Cc1sc(C)c(C(=O)NC2CC3(C2)CC(C(=O)O)C3)c1Cc1ccc(-c2cccc(F)c2)cc1 (stereo not shown) [Example 43, 6-(4-((3′-fluoro-[1,1′-biphenyl]-4-yl)methyl)-2,5-dimethylthiophene-3-carboxamido)spiro[3.3]heptane-2-carboxylic acid]
IC50 (hEP2): 500 to 5000 nM | IC50 (hEP4): < 500 nM

Cc1sc(C)c(C(=O)NC2CC3(C2)CC(C(=O)O)C3)c1Cc1ccc(-c2cccc(C(F)(F)F)c2)cc1 (stereo not shown) [Example 44, 6-(2,5-dimethyl-4-((3′-(trifluoromethyl)-[1,1′-biphenyl]-4-yl)methyl)thiophene-3-carboxamido)spiro[3.3]heptane-2-carboxylic acid]
IC50 (hEP2): 500 to 5000 nM | IC50 (hEP4): < 500 nM

CCOc1cc(F)cc(-c2ccc(Cc3c(C)sc(C)c3C(=O)NC3CC4(C3)CC(C(=O)O)C4)cc2)c1 (stereo not shown) [Example 45, 6-(4-((3′-ethoxy-5′-fluoro-[1,1′-biphenyl]-4-yl)methyl)-2,5-dimethylthiophene-3-carboxamido)spiro[3.3]heptane-2-carboxylic acid]
IC50 (hEP2): 500 to 5000 nM | IC50 (hEP4): < 500 nM

Cc1sc(C)c(C(=O)NC2CC3(C2)CC(C(=O)O)C3)c1Cc1ccc(-c2cc(F)cc(OC(C)C)c2)cc1 (stereo not shown) [Example 46, 6-(4-((3′-fluoro-5′-isopropoxy-[1,1′-biphenyl]-4-yl)methyl)-2,5-dimethylthiophene-3-carboxamido)spiro[3.3]heptane-2-carboxylic acid]
IC50 (hEP2): 500 to 5000 nM | IC50 (hEP4): 500 to 5000 nM

COc1ccc(F)c(-c2ccc(Cc3c(C)sc(C)c3C(=O)NC3CC4(C3)CC(C(=O)O)C4)cc2)c1 (stereo not shown) [Example 47, 6-(4-((2′-fluoro-5′-methoxy-[1,1′-biphenyl]-4-yl)methyl)-2,5-dimethylthiophene-3-carboxamido)spiro[3.3]heptane-2-carboxylic acid]
IC50 (hEP2): > 10000 nM | IC50 (hEP4): 500 to 5000 nM

COc1ccc(F)cc1-c1ccc(Cc2c(C)sc(C)c2C(=O)NC2CC3(C2)CC(C(=O)O)C3)cc1 (stereo not shown) [Example 48, 6-(4-((5′-fluoro-2′-methoxy-[1,1′-biphenyl]-4-yl)methyl)-2,5-dimethylthiophene-3-carboxamido)spiro[3.3]heptane-2-carboxylic acid]
IC50 (hEP2): > 10000 nM | IC50 (hEP4): < 500 nM

Cc1sc(C)c(C(=O)NC2CC3(C2)CC(C(=O)O)C3)c1Cc1ccc(-c2ccccc2F)cc1 (stereo not shown) [Example 49, 6-(4-((2′-fluoro-[1,1′-biphenyl]-4-yl)methyl)-2,5-dimethylthiophene-3-carboxamido)spiro[3.3]heptane-2-carboxylic acid]
IC50 (hEP2): > 10000 nM | IC50 (hEP4): > 10000 nM

COc1cc(-c2ccc(Cc3c(C)sc(C)c3C(=O)NC3CC4(C3)CC(C(=O)O)C4)cc2)ccn1 (stereo not shown) [Example 50, 6-(4-(4-(2-methoxypyridin-4-yl)benzyl)-2,5-dimethylthiophene-3-carboxamido)spiro[3.3]heptane-2-carboxylic acid]
IC50 (hEP2): > 10000 nM | IC50 (hEP4): < 500 nM

COc1cc(-c2ccc(Cc3c(C)sc(C)c3C(=O)NC3CC4(C3)CC(C(=O)O)C4)cc2)cc(C(F)(F)F)c1 (stereo not shown) [Example 51, 6-(4-((3′-methoxy-5′-(trifluoromethyl)-[1,1′-biphenyl]-4-yl)methyl)-2,5-dimethylthiophene-3-carboxamido)spiro[3.3]heptane-2-carboxylic acid]
IC50 (hEP2): 500 to 5000 nM | IC50 (hEP4): < 500 nM

Cc1sc(C)c(C(=O)NC2CC3(C2)CC(C(=O)O)C3)c1Cc1ccc(-c2cc(F)cc(F)c2)cc1 (stereo not shown) [Example 52, 6-(4-((3′,5′-difluoro-[1,1′-biphenyl]-4-yl)methyl)-2,5-dimethylthiophene-3-carboxamido)spiro[3.3]heptane-2-carboxylic acid]
IC50 (hEP2): 5000 to 10000 nM | IC50 (hEP4): < 500 nM

COc1cc(OC)cc(-c2ccc(Cc3c(C)sc(C)c3C(=O)NC3CC4(C3)CC(C(=O)O)C4)cc2)c1 (stereo not shown) [Example 53, 6-(4-((3′,5′-dimethoxy-[1,1′-biphenyl]-4-yl)methyl)-2,5-dimethylthiophene-3-carboxamido)spiro[3.3]heptane-2-carboxylic acid]
IC50 (hEP2): 500 to 5000 nM | IC50 (hEP4): < 500 nM

Cc1sc(C)c(C(=O)NC2CC3(C2)CC(C(=O)O)C3)c1Cc1ccc(-c2cc(N)cc(F)c2)cc1 (stereo not shown) [Example 54, 6-(4-((3′-amino-5′-fluoro-[1,1′-biphenyl]-4-yl)methyl)-2,5-dimethylthiophene-3-carboxamido)spiro[3.3]heptane-2-carboxylic acid]
IC50 (hEP2): 500 to 5000 nM | IC50 (hEP4): < 500 nM

CSc1cc(F)cc(-c2ccc(Cc3c(C)sc(C)c3C(=O)NC3CC4(C3)CC(C(=O)O)C4)cc2)c1 (stereo not shown) [Example 55, 6-(4-((3′-fluoro-5′-(methylthio)-[1,1′-biphenyl]-4-yl)methyl)-2,5-dimethylthiophene-3-carboxamido)spiro[3.3]heptane-2-carboxylic acid]
IC50 (hEP2): 500 to 5000 nM | IC50 (hEP4): < 500 nM

Cc1sc(C)c(C(=O)NC2CC3(C2)CC(C(=O)O)C3)c1Cc1ccc(-c2cc(F)cc(S(C)(=O)=O)c2)cc1 (stereo not shown) [Example 56, 6-(4-((3′-fluoro-5′-(methylsulfonyl)-[1,1′-biphenyl]-4-yl)methyl)-2,5-dimethylthiophene-3-carboxamido)spiro[3.3]heptane-2-carboxylic acid]
IC50 (hEP2): > 10000 nM | IC50 (hEP4): 5000 to 10000 nM

Cc1sc(C)c(C(=O)NC2CC3(C2)CC(C(=O)O)C3)c1Cc1ccc(-c2cc(F)cc(C(N)=O)c2)cc1 (stereo not shown) [Example 57, 6-(4-((3′-carbamoyl-5′-fluoro-[1,1′-biphenyl]-4-yl)methyl)-2,5-dimethylthiophene-3-carboxamido)spiro[3.3]heptane-2-carboxylic acid]
IC50 (hEP2): 500 to 5000 nM | IC50 (hEP4): < 500 nM

COc1cc(C(N)=O)cc(-c2ccc(Cc3c(C)sc(C)c3C(=O)NC3CC4(C3)CC(C(=O)O)C4)cc2)c1 (stereo not shown) [Example 58, 6-(4-((3′-carbamoyl-5′-methoxy-[1,1′-biphenyl]-4-yl)methyl)-2,5-dimethylthiophene-3-carboxamido)spiro[3.3]heptane-2-carboxylic acid]
IC50 (hEP2): 500 to 5000 nM | IC50 (hEP4): < 500 nM

COc1cc(CNC(=O)OC(C)(C)C)cc(-c2ccc(Cc3c(C)sc(C)c3C(=O)NC3CC4(C3)CC(C(=O)O)C4)cc2)c1 (stereo not shown) [Example 59, 6-(4-((3′-(((tert-butoxycarbonyl)amino)methyl)-5′-methoxy-[1,1′-biphenyl]-4-yl)methyl)-2,5-dimethylthiophene-3-carboxamido)spiro[3.3]heptane-2-carboxylic acid]
IC50 (hEP2): > 10000 nM | IC50 (hEP4): 500 to 5000 nM
